Assay results reported in patent USRE38132E1, “Phenylpyrrolidines, phenylimidazolidines,3-phenyl-1,3-oxizolidines and 3-phenyl-1,3-thiazolidines and their use in the treatment of inflammatory disease” (Boehringer Ingelheim Pharmaceuticals, Inc., priority 1997, dated 2003).
Like-named read-outs stand apart in the source and are kept apart here.

Experiments:
[1] = target: T1, interaction of ICAM-1 with the Leukointegrin CD18/CD11a (LFA-1) (Homo sapiens, UniProt P05107+P20701); assay: Assay to determine inhibition of LFA-1 binding to ICAM-1 (immunopurified LFA-1 on plate-bound sICAM-1, ELISA readout)
T1 construct: endogenous in cells; sICAM-1: made in house, secreted from transfected CHO DUX cells

[2] = test system: cell bound form of LFA-1 (CD18, CD11a) with ICAM-1, SKW3 cells; assay: Inhibition of SKW3 cell binding to ICAM-1 (PMA-stimulated); assay type: cell-based, human; settings: Homo sapiens, read-out: Assay to Detect SKW3 Cells Binding to ICAM IC50
Method in brief: (§1)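 Compound-treated, PMA-stimulated human T-cell line SKW3 (50 μg/mL PMA final) allowed to adhere for 2 h at 37° C to wells coated with sICAM-1 at 40 μg/mL or fibronectin at 100 μg/mL. After gentle RPMI wash, 50% inhibition concentration or range reported in μM.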

[3] = test system: cell bound fibronectin receptor (VLA4) with fibronectin, SKW3 cells; assay: Inhibition of SKW3 cell binding to fibronectin (selectivity counter-assay); assay type: cell-based, human; settings: for IC50: read-out: Assay to Detect SKW3 Cells Binding to FIBRONECTIN IC50
Method in brief: as §1

[4] = test system: LFA-1 dependent aggregation of JY cells; assay: JY cell homotypic aggregation assay (PMA-stimulated); assay type: cell-based, human
Method in brief: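 Homotypic aggregation of EBV-transformed JY cells, stimulated by phorbol myristate acetate ([…]), scored visually over time in compound presence at 2·10^5 cells/well in serum-supplemented RPMI 1640. Result given as μM concentration or range inhibiting binding by 50%.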

[5] = test system: human MLR, peripheral blood mononuclear cells; assay: Inhibition of the mixed lymphocyte reaction (MLR), tritiated thymidine uptake; assay type: cell-based; set-up: key: Data are reported as “+” or “−” at a given concentration (in μM); Data are reported as “+” or “−” at a given concentration (in μM)
Description: Assay to Determine Inhibition the Mixed Lymphocyte Reaction
As discussed above, ICAM-1 is necessary for effective cellular interactions during an immune response mediated through LFA-1-dependent cell adhesion. When lymphocytes from two unrelated individuals are cultured together, blast transformation and cell proliferation of the lymphocytes are observed. This response is known as a mixed lymphocyte reaction (MLR) and is analogous to the response of lymphocytes to the 10 addition of antigens or mitogens (Immunology: The Science of Self-Nonself Discrimination; Klein, J., Ed.; John Wiley & Sons: NY, 1982, pp 453-458).
This assay protocol is used to determine the effect of a test compound on the human MLR.
Description of Assay Protocol:
Peripheral blood is obtained from normal, healthy donors by venipuncture. The blood is collected in heparinized tubes and diluted 1:1 at room temperature with Puck's G (GIBCO) balanced salt solution (BSS). The blood mixture (20 mL) is layered over 15 mL of a Ficoll/Hypaque density gradient (Pharmacia, density=1.078, room temperature) and centrifuged at 1000·g for 20 minutes. The interface is then collected and washed 3 times in Puck's G. The cells are counted on a hemocytometer and resuspended in RPMI 1640 culture medium (GIBCO) containing 0.5% of gentamicin, 1 mM L-glutamine (GICO) and 5% heat inactivated (56° C., 30 min) human AB sera (Flow Laboratories) (hereafter referred to as RPMI-culture medium).
Stimulator cells (cells that have been treated with irradiation so that they are unable to proliferate) from a separate donor are cultured with the responder cells at the same concentration. Test compound is added to wells at various concentrations. The total volume per culture is 0.2 mL. Controls include compound vehicle alone (DMSO), responder cells alone, and stimulator cells alone. The culture plates are incubated at 37° C. in a 5% CO2-humidified air atmosphere for 5 days.
The wells are pulsed with 0.5 μCi of tritiated thymidine (^3HT) (New England Nuclear) for the last 18 h of culture. In some cases a two-way MLR can be performed. The protocol is the same except that the second donor's cells are not inactivated by irradiation.
The cells are harvested onto glass fiber filters using an automated multiple sample harvester (Skatron, Norway), and rinsed with water and methanol. The filters are oven dried and counted in Aquasol in a Beckman (LS-3801) liquid scintillation counter.
Data are reported as “+” or “−” at a given concentration (in μM).

[6] = values marked e approximated from incomplete dose-response curve
[7] = SKW3, values marked c: no inhibition observed up to highest dose
[8] = values marked c: no inhibition observed up to highest dose
[9] = No inh = no inhibition observed up to highest dose, exact quantification not always possible due to intrinsic toxicity

T1 sequence (P20701 26-1170): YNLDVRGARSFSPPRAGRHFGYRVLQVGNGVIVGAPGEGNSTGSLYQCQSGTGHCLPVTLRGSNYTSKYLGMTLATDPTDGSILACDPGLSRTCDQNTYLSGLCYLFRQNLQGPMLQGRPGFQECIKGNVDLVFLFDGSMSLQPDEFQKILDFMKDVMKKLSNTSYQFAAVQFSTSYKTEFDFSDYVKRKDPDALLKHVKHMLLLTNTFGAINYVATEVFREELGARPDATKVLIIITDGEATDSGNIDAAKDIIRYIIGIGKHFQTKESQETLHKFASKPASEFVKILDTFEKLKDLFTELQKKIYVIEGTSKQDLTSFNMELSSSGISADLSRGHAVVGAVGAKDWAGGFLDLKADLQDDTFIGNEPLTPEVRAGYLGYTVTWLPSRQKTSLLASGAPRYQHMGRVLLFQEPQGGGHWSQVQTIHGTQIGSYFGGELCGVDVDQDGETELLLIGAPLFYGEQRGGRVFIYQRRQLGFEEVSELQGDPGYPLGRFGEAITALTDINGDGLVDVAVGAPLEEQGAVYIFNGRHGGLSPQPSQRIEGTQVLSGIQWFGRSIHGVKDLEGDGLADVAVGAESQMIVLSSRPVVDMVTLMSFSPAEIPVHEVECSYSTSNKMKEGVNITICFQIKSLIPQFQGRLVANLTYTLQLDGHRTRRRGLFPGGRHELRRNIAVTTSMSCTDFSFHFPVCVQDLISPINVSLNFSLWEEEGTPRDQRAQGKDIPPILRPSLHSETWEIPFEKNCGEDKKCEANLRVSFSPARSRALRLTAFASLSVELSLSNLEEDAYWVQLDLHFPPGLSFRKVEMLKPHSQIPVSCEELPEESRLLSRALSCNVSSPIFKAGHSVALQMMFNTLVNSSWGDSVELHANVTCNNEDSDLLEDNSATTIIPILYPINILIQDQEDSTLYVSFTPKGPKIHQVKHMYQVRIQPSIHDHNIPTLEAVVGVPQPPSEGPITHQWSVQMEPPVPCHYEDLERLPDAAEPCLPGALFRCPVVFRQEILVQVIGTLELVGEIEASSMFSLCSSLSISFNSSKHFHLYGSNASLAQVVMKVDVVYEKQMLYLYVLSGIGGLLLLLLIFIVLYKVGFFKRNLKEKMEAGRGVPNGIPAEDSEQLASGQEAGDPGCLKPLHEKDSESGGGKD
T1 sequence (P05107 23-769): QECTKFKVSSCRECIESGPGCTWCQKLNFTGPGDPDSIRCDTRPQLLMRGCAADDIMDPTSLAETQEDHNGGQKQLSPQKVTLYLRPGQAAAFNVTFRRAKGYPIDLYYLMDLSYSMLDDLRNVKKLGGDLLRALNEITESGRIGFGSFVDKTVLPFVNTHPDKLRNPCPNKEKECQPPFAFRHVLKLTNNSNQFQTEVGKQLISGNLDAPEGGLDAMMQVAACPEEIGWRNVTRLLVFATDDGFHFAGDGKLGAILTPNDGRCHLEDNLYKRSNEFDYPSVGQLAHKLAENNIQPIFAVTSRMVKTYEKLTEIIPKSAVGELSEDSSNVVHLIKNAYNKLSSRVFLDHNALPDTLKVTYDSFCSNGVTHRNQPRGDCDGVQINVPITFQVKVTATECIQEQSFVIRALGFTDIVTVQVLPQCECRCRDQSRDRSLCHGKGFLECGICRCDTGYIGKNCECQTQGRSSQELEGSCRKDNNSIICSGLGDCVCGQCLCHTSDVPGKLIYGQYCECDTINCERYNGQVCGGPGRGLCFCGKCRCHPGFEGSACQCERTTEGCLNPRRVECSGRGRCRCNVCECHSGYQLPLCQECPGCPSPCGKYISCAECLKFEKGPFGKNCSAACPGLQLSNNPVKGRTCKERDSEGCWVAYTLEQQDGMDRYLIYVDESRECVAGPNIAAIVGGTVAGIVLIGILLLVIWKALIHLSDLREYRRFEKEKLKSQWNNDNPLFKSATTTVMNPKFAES

Kd [1, 6] [nM]	melting point [°C]	Compound	IC50 [2, 7] [nM]	IC50 ([4]; Homo sapiens) [nM]	Mixed Lymphocyte Reaction MLR +/− ([5]; at 25 μM)	Cellular Toxicity Assay MTT LD50 (SKW3 cells) [µM]	other results
1450	55 to 56	CC1(Cc2ccc(Cl)s2)NC(=O)N(c2cc(Cl)cc(Cl)c2)C1=O (stereo not drawn) [Example 64]					
2350	122 to 123	COc1c(F)c(F)c(CC2(C)NC(=O)N(c3cc(Cl)cc(Cl)c3)C2=O)c(F)c1F (stereo not drawn) [Example 61]					
~17000	> 240	Cc1cc(C)cc(CC2(C)NC(=O)N(c3cc(Cl)cc(Cl)c3)C2=O)c1 (stereo not drawn) [Example 50]					
		C[C@@]1(Cc2ccc(Br)cc2)C(=O)N(c2cc(Cl)cc(Cl)c2)C(=O)N1Cc1cccc(C(=O)O)c1 [Example 229]		3100		50 to 100	Kd [1]: 300 nM; IC50 ([2]; SKW3): 6000 to 13000 nM; Assay to Detect SKW3 Cells Binding to FIBRONECTIN IC50 [3, 9]: No inh^c; Mixed Lymphocyte Reaction MLR +/− ([5]; at 50 μM): +(50)
160	67 to 69	CC1(Cc2ccc(C(F)(F)F)c(F)c2)NC(=O)N(c2cc(Cl)cc(Cl)c2)C1=O (stereo not drawn) [Example 62]					
		CCCN1C(=O)N(c2cc(Cl)cc(Cl)c2)C(=O)[C@]1(C)Cc1ccc(Br)cc1 [Example 276]		500	+(25)	375	Kd [1]: 1110 nM; IC50 ([2]; SKW3): 10000 nM; Assay to Detect SKW3 Cells Binding to FIBRONECTIN IC50 [3, 9]: No inh^c
330	173 to 174	CC1(Cc2ccc3c(Cl)cc(C(F)(F)F)nc3c2)NC(=O)N(c2cc(Cl)cc(Cl)c2)C1=O (stereo not drawn) [Example 59]					
260	61 to 63	CC1(Cc2ccc(-c3ccccc3)cc2)NC(=O)N(c2cc(Cl)cc(Cl)c2)C1=O (stereo not drawn) [Example 49]					
		C[C@@]1(Cc2ccc(Br)cc2)C(=O)N(c2cc(Cl)cc(Cl)c2)C(=O)N1CCCC(=O)O [Example 227]		3100		200 to 400	Kd [1]: 180 nM; IC50 ([2]; SKW3): 25000 nM; Assay to Detect SKW3 Cells Binding to FIBRONECTIN IC50 [3, 9]: No inh^c; Mixed Lymphocyte Reaction MLR +/− ([5]; at 50 μM): +(50)
420	117 to 118	CC1(Cc2ccc(F)c(F)c2)NC(=O)N(c2cc(Cl)cc(Cl)c2)C1=O (stereo not drawn) [Example 54]					
~70000	168 to 170	CC1(Cc2ccc(F)c(C(F)(F)F)c2)NC(=O)N(c2cc(Cl)cc(Cl)c2)C1=O (stereo not drawn) [Example 69]					
		C[C@@]1(Cc2ccc(Br)cc2)C(=O)N(c2cc(Cl)cc(Cl)c2)C(=O)N1CCCCCC(=O)O [Example 226]		1600	+(25)	100	Kd [1]: 70 nM; IC50 ([2]; SKW3): 3000 to 6000 nM; Assay to Detect SKW3 Cells Binding to FIBRONECTIN IC50 [3, 9]: No inh^c
230	133 to 134	CC1(Cc2ccc(SC(F)(F)F)cc2)NC(=O)N(c2cc(Cl)cc(Cl)c2)C1=O (stereo not drawn) [Example 60]					
2850	153 to 155	CC1(Cc2ccccc2OC(F)(F)F)NC(=O)N(c2cc(Cl)cc(Cl)c2)C1=O (stereo not drawn) [Example 66]					
3540	163 to 164	CC1(Cc2ccc(C(F)(F)F)c(F)c2F)NC(=O)N(c2cc(Cl)cc(Cl)c2)C1=O (stereo not drawn) [Example 67]					
1320	170 to 171	CC1(Cc2cccc(SC(F)(F)F)c2)NC(=O)N(c2cc(Cl)cc(Cl)c2)C1=O (stereo not drawn) [Example 65]					
		C[C@]1(Cc2ccc(C(=O)c3ccccc3)cc2)NC(=O)N(c2cc(Cl)cc(Cl)c2)C1=O [Example 215]				100 to 200	Kd [1]: 200 nM; IC50 ([2]; SKW3): 50000 to 100000 nM; IC50 ([3]; Homo sapiens, SKW3, No inh = no inhibition observed up to highest dose, exact quantification not always possible due to intrinsic toxicity): > 100000 nM; IC50 [4]: 3100 nM; Mixed Lymphocyte Reaction MLR +/− ([5]; at 50 μM): +(50)
		C[C@@]1(Cc2ccc(Br)cc2)C(=O)N(c2cc(Cl)cc(Cl)c2)C(=O)N1CCO [Example 225]		200	+(25)	50 to 100	Kd [1]: 630 nM; IC50 ([2]; SKW3): 3000 to 4000 nM; Assay to Detect SKW3 Cells Binding to FIBRONECTIN IC50 [3, 9]: No inh^c

Compound	Kd [1, 6] [nM]	melting point [°C]	IC50 [2, 7] [nM]	IC50 ([4]; Homo sapiens) [nM]	Mixed Lymphocyte Reaction MLR +/− ([5]; at 25 μM)	Cellular Toxicity Assay MTT LD50 (SKW3 cells) [µM]	other results
CC1(Cc2ccc(Br)cc2)C(=O)N(c2cc(Cl)cc(Cl)c2)C(=O)N1C1CC1 (stereo not drawn) [Example 169]	50		12000 to 25000	1500	+(25)	160 to 230	Assay to Detect SKW3 Cells Binding to FIBRONECTIN IC50 [3, 8]: No inh^c
CN1C(=O)N(c2cc(Cl)cc(Cl)c2)C(=O)[C@@]1(C)Cc1ccc(-c2ccccc2)cc1 [Example 182]	50		3000 to 6000	20	+(25)	200 to 400	Assay to Detect SKW3 Cells Binding to FIBRONECTIN IC50 [3, 8]: No inh^c
CN1C(=O)N(c2cc(Cl)c(Cl)c(Cl)c2)C(=O)[C@@]1(C)Cc1ccc(Br)cc1 [Example 123]	100		12000 to 25000	600		50 to 100	IC50 ([3]; Homo sapiens, SKW3, values marked c: no inhibition observed up to highest dose): > 25000 nM; Mixed Lymphocyte Reaction MLR +/− ([5]; at 50 μM): +(50)
CN1C(=O)N(c2cc(Cl)cc(Cl)c2)C(=O)C1(C)Cc1ccc(F)cc1 (stereo not drawn) [Example 146]	130		13000 to 25000	400		100	Assay to Detect SKW3 Cells Binding to FIBRONECTIN IC50 [3, 8]: No inh^c; Mixed Lymphocyte Reaction MLR +/− ([5]; at 50 μM): +(50)
CN1C(=O)N(c2cc(Cl)cc(Cl)c2)C(=O)C1(C)Cc1ccc([N+](=O)[O-])cc1 (stereo not drawn) [Example 157]	37		5000 to 10000	400	+(25)	>390	Assay to Detect SKW3 Cells Binding to FIBRONECTIN IC50 [3, 8]: No inh^c
CN1C(=O)N(c2cc(Cl)cc(Cl)c2)C(=O)C1(C)Cc1ccc(C#N)cc1 (stereo not drawn) [Example 151]	46		5000 to 10000	200	+(25)	>410	Assay to Detect SKW3 Cells Binding to FIBRONECTIN IC50 [3, 8]: No inh^c
C[C@H]1C(=O)N(c2cc(Cl)cc(Cl)c2)C(=O)[C@]1(C)Cc1ccc(Br)cc1 [Example 72]	60		20000 to 40000	1400	+(25)	>363	Assay to Detect SKW3 Cells Binding to FIBRONECTIN IC50 [3, 8]: No inh^c
CN1C(=O)N(c2cc(Cl)cc(Cl)c2)C(=O)C1Cc1ccc(Br)cc1 (stereo not drawn) [Example 92]	120		13000 to 25000	3100	+(25)	63 to 125	Assay to Detect SKW3 Cells Binding to FIBRONECTIN IC50 [3, 8]: No inh^c
CCCN1C(=O)N(c2cc(Cl)cc(Cl)c2)C(=O)[C@@]1(C)Cc1ccc(Br)cc1 [Example 98]	55		5000 to 10000	3000		>340	Assay to Detect SKW3 Cells Binding to FIBRONECTIN IC50 [3, 8]: No inh^c; Mixed Lymphocyte Reaction MLR +/− ([5]; at 50 μM): +(50)
CN1C(=O)N(c2cc(C(F)(F)F)cc(C(F)(F)F)c2)C(=O)C1(C)Cc1ccccc1 (stereo not drawn) [Example 83]	300		13000 to 25000	6000		250 to 500	IC50 [3, 8]: > 200000 nM; Mixed Lymphocyte Reaction MLR +/− ([5]; at 50 μM): +(50)
